From ChEMBL document CHEMBL5257097, “An Isomer of Galidesivir That Potently Inhibits Influenza Viruses and Members of the Bunyavirales Order” (ACS Med Chem Lett, 2023)

Tests used:
Marburgvirus = experiment: Antiviral activity against Marburg virus infected in human HeLa cells assessed as reduction in viral cytopathic effect; format: functional, organism-based; conditions: Orthomarburgvirus
Influenza B virus [1] = experiment: Antiviral activity against Influenza B virus infected in dog MDCK cells assessed as reduction in viral cytopathic effect; format: functional, organism-based
dengue virus type 2 = experiment: Antiviral activity against DENV-2 infected in African green monkey Vero cells assessed as reduction in virus-induced cytopathic effect measured after 15 to 30 mins by visual analysis; format: functional, organism-based
[2] = (§1) Selectivity index, ratio of CC50 for cytotoxicity against African green monkey Vero cells infected with DENV-2 assessed as reduction in cell viability by visual analysis to EC50 for antiviral activity against DENV-2 infected in human Huh-7 cells assessed as reduction in virus-induced cytopathic effect by visual analysis; format: toxicity, cell-based; conditions: read-out: Ratio CC50/EC50
[3] = tested on: Middle East respiratory syndrome-related coronavirus; experiment: Antiviral activity against MERS-CoV infected in vervet monkey MA-104 cells assessed as reduction in virus-induced cytopathic effect measured after 15 to 30 mins by neutral red dye based assay; format: functional, organism-based; conditions: MA104
[4] = Cytotoxicity against vervet monkey MA-104 cells infected with MERS-CoV assessed as reduction in cell viability by visual assay; format: toxicity, cell-based; conditions: cercopithecus pygerythrus
[5] = as §1, with “vervet” for “African green”, “MA-104” for “Vero”, “MERS-CoV” for “DENV-2”, “neutral red dye based” for “visual”, “vervet monkey MA-104” for “human Huh-7”; format: toxicity; conditions: read-out: Ratio CC50/EC50
[6] = as §1, with “vervet” for “African green”, “MA-104” for “Vero”, “MERS-CoV” for “DENV-2”, “vervet monkey MA-104” for “human Huh-7”; format: toxicity, cell-based; conditions: read-out: Ratio CC50/EC50
[7] = as §1, with “Vero 76” for “Vero”, “MERS-CoV” for “DENV-2”, “neutral red dye based” for “visual”, “African green monkey Vero 76” for “human Huh-7”; format: toxicity; conditions: read-out: Ratio CC50/EC50
Influenza A virus [8] = experiment: Antiviral activity against Influenza A virus H1N1 infected in dog MDCK cells assessed as inhibition of viral replication measured after 15 to 30 mins by visual analysis; format: functional, organism-based
Influenza A virus [9] = experiment: Antiviral activity against Influenza A virus H1N1 infected in dog MDCK cells assessed as inhibition of viral replication measured after 15 to 30 mins by neutral red dye based analysis; format: functional, organism-based
Influenza A virus [10] = experiment: Antiviral activity against Influenza A virus H7N9 infected in dog MDCK cells assessed as inhibition of viral replication measured after 15 to 30 mins by visual analysis; format: functional, organism-based
Influenza B virus [11] = experiment: Antiviral activity against Influenza B virus infected in dog MDCK cells assessed as inhibition of viral replication measured after 15 to 30 mins by visual analysis; format: functional, organism-based
[12] = (§2) Selectivity index, ratio of CC50 for cytotoxicity against dog MDCK cells infected with Influenza A virus H1N1 assessed as reduction in cell viability by neutral red dye based analysis to EC50 for antiviral activity against Influenza A virus H1N1 infected in dog MDCK cells assessed as inhibition of viral replication by neutral red dye based analysis; format: toxicity; conditions: read-out: Ratio CC50/EC50
[13] = as §2, with “B” for “A”, “virus” for “virus H1N1”, “visual” for “neutral red dye based”, “EC90” for “EC50”, “reduction in” for “inhibition of”, “yield” for “replication”; format: toxicity, cell-based
Junin virus = experiment: Antiviral activity against Junin virus infected in African green monkey Vero E6 cells assessed as inhibition of viral replication by visual analysis; format: functional, organism-based; conditions: Mammarenavirus juninense, Vero C1008
La Crosse virus = experiment: Antiviral activity against La Crosse virus infected in African green monkey Vero E6 cells assessed as inhibition of viral replication by neutral red dye based analysis; format: functional, organism-based; conditions: Vero C1008
Oropouche virus = experiment: Antiviral activity against Oropouche virus infected in African green monkey Vero E6 cells assessed as inhibition of viral replication by visual analysis; format: functional, organism-based; conditions: Vero C1008
Punta Toro virus = experiment: Antiviral activity against Punta Toro virus infected in African green monkey Vero 76 cells assessed as inhibition of viral replication by neutral red dye based analysis; format: functional, organism-based
Tacaribe virus = experiment: Antiviral activity against Tacaribe virus infected in African green monkey Vero cells assessed as inhibition of viral replication by neutral red dye based analysis; format: functional, organism-based; conditions: Mammarenavirus tacaribeense
Rift Valley fever virus = experiment: Antiviral activity against Rift Valley fever virus infected in African green monkey Vero 76 cells assessed as reduction in viral yield measured for 3 days; format: functional; conditions: Vero 76, 72 h, time 3 day
Heartland virus = experiment: Antiviral activity against Heartland virus infected in African green monkey Vero E6 cells assessed as reduction in viral yield measured for 3 days; format: functional; conditions: Vero C1008, 72 h, time 3 day
[14] = tested on: Orthohantavirus maporalense; experiment: Antiviral activity against Maporal virus infected in African green monkey Vero E6 cells assessed as reduction in viral yield measured for 3 days; format: functional; conditions: Vero C1008, 72 h, time 3 day
[15] = Cytotoxicity against African green monkey Vero E6 cells infected with JUNV assessed as reduction in cell viability by neutral red dye based analysis; format: toxicity, Vero C1008; conditions: chlorocebus sabaeus
[16] = Cytotoxicity against African green monkey Vero 76 cells infected with La Crosse virus assessed as reduction in cell viability by visual analysis; format: toxicity, cell-based; conditions: chlorocebus sabaeus
[17] = Cytotoxicity against African green monkey Vero E6 cells infected with Maporal virus assessed as reduction in cell viability; format: toxicity, cell-based, Vero C1008; conditions: chlorocebus sabaeus
[18] = Cytotoxicity against African green monkey Vero cells infected with Pichinde virus assessed as reduction in cell viability by visual analysis; format: toxicity, cell-based; conditions: chlorocebus sabaeus
[19] = Cytotoxicity against African green monkey Vero cells infected with Pichinde virus assessed as reduction in cell viability by neutral red dye based analysis; format: toxicity; conditions: chlorocebus sabaeus
[20] = Cytotoxicity against African green monkey Vero 76 cells infected with Punta Toro virus assessed as reduction in cell viability by visual analysis; format: toxicity, cell-based; conditions: chlorocebus sabaeus
[21] = Cytotoxicity against African green monkey Vero 76 cells infected with Punta Toro virus assessed as reduction in cell viability by neutral red dye based analysis; format: toxicity; conditions: chlorocebus sabaeus
[22] = Cytotoxicity against African green monkey Vero cells infected with Tacaribe virus assessed as reduction in cell viability by neutral red dye based analysis; format: toxicity; conditions: chlorocebus sabaeus
[23] = as §1, with “Vero 76” for “Vero”, “La Crosse virus” for “DENV-2”, “African green monkey Vero 76” for “human Huh-7”, “viral replication” for “virus-induced cytopathic effect”; format: toxicity, cell-based; conditions: read-out: Ratio CC50/EC50
[24] = as §2, with “African green monkey Vero 76” for “dog MDCK”, “La Crosse” for “Influenza A”, “virus” for “virus H1N1”, “dye” for “dye based”, “reduction in” for “inhibition of”; format: toxicity, cell-based; conditions: read-out: Ratio CC50/EC50
[25] = Selectivity index, ratio of CC50 for cytotoxicity against African green monkey Vero E6 cells infected with Lymphocytic choriomeningitis virus assessed as reduction in cell viability to EC90 for antiviral activity against Lymphocytic choriomeningitis virus infected in African green monkey Vero E6 cells assessed as reduction in viral yield; format: toxicity, cell-based, Vero C1008
[26] = as §1, with “Vero 76” for “Vero”, “Punta Toro virus” for “DENV-2”, “African green monkey Vero 76” for “human Huh-7”, “viral replication” for “virus-induced cytopathic effect”; format: toxicity, cell-based; conditions: read-out: Ratio CC50/EC50
[27] = Toxicity in BALB/c mouse infected with influenza A/Ca/04/09 (H1N1) assessed as animal survival at 10 to 300 mg/kg, ip measured every day for 6 days; format: organism-based; conditions: in vivo, 144 h, dose 10-300 mg/kg, time 6 day
[28] = Toxicity in BALB/c mouse infected with influenza A/Ca/04/09 (H1N1) assessed as mortality at 30 mg/kg, ip measured every day for 6 days; format: organism-based; conditions: in vivo, time 6 day, read-out: Activity
[29] = Toxicity in BALB/c mouse infected with influenza A/Ca/04/09 (H1N1) assessed as mortality at 100 mg/kg, ip measured every day for 6 days; format: organism-based; conditions: in vivo, time 6 day, read-out: Activity
[30] = Toxicity in BALB/c mouse infected with influenza A/Ca/04/09 (H1N1) assessed as mortality at 300 mg/kg, ip measured every day for 6 days; format: organism-based; conditions: in vivo, time 6 day, read-out: Activity

Structure (SMILES): Nc1ncnc2c([C@@H]3N[C@H](CO)[C@@H](O)[C@H]3O)c[nH]c12 [GALIDESIVIR]
- EC50 (Marburgvirus): 3000 nM
- EC50 (Influenza B virus [1]): 1000 nM
- EC50 (dengue virus type 2): 4200 nM
- selectivity ratio [2]: > 24
- EC50 [3]: 36000 nM
- CC50 [4]: > 100000 nM
- selectivity ratio [5]: > 3.1
- selectivity ratio [6]: > 2.8

Structure (SMILES): Nc1ncnn2c([C@@H]3N[C@H](CO)[C@@H](O)[C@H]3O)ccc12
- selectivity ratio [7]: 15
- EC50 (Influenza A virus [8]): 320 nM
- EC50 (Influenza A virus [9]): 320 nM
- EC50 (Influenza A virus [10]): 420 nM
- EC50 (Influenza B virus [11]): 320 nM
- selectivity ratio [12]: 44
- selectivity ratio [13]: 50
- EC50 (Junin virus): 540 nM
- EC50 (La Crosse virus): < 100 nM
- EC50 (Oropouche virus): 390 nM
- EC50 (Punta Toro virus): 270 nM
- EC50 (Tacaribe virus): 330 nM
- EC90 (Rift Valley fever virus): 97 nM
- EC90 (Heartland virus): 130 nM
- EC90 [14]: 860 nM
- CC50 [15]: 9600 nM
- CC50 [16]: 24000 nM
- CC50 [17]: 13000 nM
- CC50 [18]: 16000 nM
- CC50 [19]: 8400 nM
- CC50 [20]: 13000 nM
- CC50 [21]: 10000 nM
- CC50 [22]: 6600 nM
- selectivity ratio [23]: > 240
- selectivity ratio [24]: > 240
- selectivity ratio [25]: 80
- selectivity ratio [26]: 41
- Activity [27]: Non-Toxic
- mortality at 144 h [28]: 15%
- mortality at 144 h [29]: 72%
- mortality at 144 h [30]: 100%
